This is an account of results in patent US10471046B2, “Method for treating, preventing, or reducing the risk of skin infection” (Melinta Subsidiary Corp., priority 2014, dated 2019).

≈ marks a conversion by molar mass, not a printed value.

The test system of the experiment is S. aureus. The experiment can be described thus: Minimum inhibitory concentrations (MICs) for S. aureus of exemplary compounds (Table 2). It counts as cell-based. Particulars: Staphylococcus aureus, minimum inhibitory concentrations for S. aureus; read-out: MICs. In outline:
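Growth of S. aureus in media with or without compound, by broth microdilution in microtiter trays following NCCLS M7-A5 guidelines. Values are MICs in μg/mL.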
`CC(=O)NC[C@H]1CN(c2ccc(-c3ccc(CNCCCN4CCCC4=O)cc3)c(F)c2)C(=O)O1` [Compound 4156, N-[3-(2-Fluoro-4′-{[3-(2-oxo-pyrrolidin-1-yl)-propylamino]-methyl}-biphenyl-4-yl)-2-oxo-oxazolidin-5-(S)-ylmethyl]-acetamide]: the MIC worked out at 16 µg/mL (≈ 33.2 µM).

Regarding `CCOC(=O)c1c(CNCc2ccc(-c3ccc(N4C[C@H](CNC(C)=O)OC4=O)cc3F)cc2)c(C)n(C2CC2)c1C` [Compound 4157, 4-[({4′-[5-(S)-(Acetylamino-methyl)-2-oxo-oxazolidin-3-yl]-2′-fluoro-biphenyl-4-ylmethyl}-amino)-methyl]-1-cyclopropyl-2,5-dimethyl-1H-pyrrole-3-carboxylic acid ethyl ester], the MIC worked out at 8 µg/mL (≈ 13.9 µM).

As for `CC(=O)NC[C@H]1CN(c2ccc(-c3ccc(CNCc4ccc(-c5cccc(S(N)(=O)=O)c5)o4)cc3)c(F)c2)C(=O)O1` [Compound 4158, N-{3-[2-Fluoro-4′-({[5-(3-sulfamoyl-phenyl)-furan-2-ylmethyl]-amino}-methyl)-biphenyl-4-yl]-2-oxo-oxazolidin-5-(S)-ylmethyl}-acetamide], the MIC worked out at 2 µg/mL (≈ 3.37 µM).

In the case of `CCc1ccc(CNCc2ccc(-c3ccc(N4C[C@H](CNC(C)=O)OC4=O)cc3F)cc2)o1` [Compound 4161, N-[3-(4′-{[(5-Ethyl-furan-2-ylmethyl)-amino]-methyl}-2-fluoro-biphenyl-4-yl)-2-oxo-oxazolidin-5-(S)-ylmethyl]-acetamide], the MIC amounted to 2 µg/mL (≈ 4.3 µM).

As for `CCc1ccc(CNCc2ccc(-c3ccc(N4C[C@H](CNC(C)=O)OC4=O)cc3F)cc2)s1` [Compound 4162, N-[3-(4′-{[(5-Ethyl-thiophen-2-ylmethyl)-amino]-methyl}-2-fluoro-biphenyl-4-yl)-2-oxo-oxazolidin-5-(S)-ylmethyl]-acetamide], the MIC was 2 µg/mL (≈ 4.15 µM).

As to `CC(=O)NC[C@H]1CN(c2ccc(-c3ccc(CNCc4c(C)nn(C)c4C)cc3)c(F)c2)C(=O)O1` [Compound 4163, N-[3-(2-Fluoro-4′-{[(1,3,5-trimethyl-1H-pyrazol-4-ylmethyl)-amino]-methyl}-biphenyl-4-yl)-2-oxo-oxazolidin-5-(S)-ylmethyl]-acetamide], the MIC came out at 8 µg/mL (≈ 16.7 µM).

In the case of `CC(=O)NC[C@H]1CN(c2ccc(-c3ccc(CNCc4csnn4)c(F)c3)c(F)c2)C(=O)O1` [Compound 4164, N-[3-(2,3′-Difluoro-4′-{[([1,2,3]thiadiazol-4-ylmethyl)-amino]-methyl}-biphenyl-4-yl)-2-oxo-oxazolidin-5-(S)-ylmethyl]-acetamide], the MIC turned out to be 1 µg/mL (≈ 2.11 µM).

In the case of `CC(=O)NC[C@H]1CN(c2ccc(-c3ccc(CNCc4c[nH]c(C)n4)cc3)c(F)c2)C(=O)O1` [Compound 4165, N-[3-(2-Fluoro-4′-{[(2-methyl-1H-imidazol-4-ylmethyl)-amino]-methyl}-biphenyl-4-yl)-2-oxo-oxazolidin-5-(S)-ylmethyl]-acetamide], the MIC was 4 µg/mL (≈ 8.86 µM).

Regarding `CC(=O)NC[C@H]1CN(c2ccc(-c3cccc(CNCc4csnn4)c3)c(F)c2)C(=O)O1` [Compound 4166, N-[3-(2-Fluoro-3′-{[([1,2,3]thiadiazol-4-ylmethyl)-amino]-methyl}-biphenyl-4-yl)-2-oxo-oxazolidin-5-(S)-ylmethyl]-acetamide], the MIC came to 8 µg/mL (≈ 17.6 µM).

As to `CSc1ccc(CNCc2ccc(-c3ccc(N4C[C@H](CNC(C)=O)OC4=O)cc3F)cc2)s1` [Compound 4167, N-[3-(2-Fluoro-4′-{[(5-methylsulfanyl-thiophen-2-ylmethyl)-amino]-methyl}-biphenyl-4-yl)-2-oxo-oxazolidin-5-(S)-ylmethyl]-acetamide], the MIC is 2 µg/mL (≈ 4 µM).

Turning to `CC(=O)NC[C@H]1CN(c2ccc(-c3ccc(CNCc4nn(C)cc4Br)cc3)c(F)c2)C(=O)O1` [Compound 4168, N-[3-(4′-{[(4-Bromo-1-methyl-1H-pyrazol-3-ylmethyl)-amino]-methyl}-2-fluoro-biphenyl-4-yl)-2-oxo-oxazolidin-5-(S)-ylmethyl]-acetamide], the MIC was determined as 2 µg/mL (≈ 3.77 µM).

On to `CC(=O)NC[C@H]1CN(c2ccc(-c3ccc(CNCc4[nH]ncc4Br)cc3)c(F)c2)C(=O)O1` [Compound 4169, N-[3-(4′-{[(4-Bromo-2H-pyrazol-3-ylmethyl)-amino]-methyl}-2-fluoro-biphenyl-4-yl)-2-oxo-oxazolidin-5-(S)-ylmethyl]-acetamide], for which the MIC turned out to be 2 µg/mL (≈ 3.87 µM).

Regarding `CC(=O)NC[C@H]1CN(c2ccc(-c3ccc(CS(=O)(=O)NCc4ccccc4)cc3)c(F)c2)C(=O)O1` [Compound 4170, N-{3-[4′-(Benzylsulfamoyl-methyl)-2-fluoro-biphenyl-4-yl]-2-oxo-oxazolidin-5-(S)-ylmethyl}-acetamide], the MIC was found to be 128 µg/mL (≈ 250 µM).

As to `CC(=O)NC[C@H]1CN(c2ccc(-c3ccc(C(=O)N[C@@H](Cc4cnc[nH]4)C(N)=O)cc3)c(F)c2)C(=O)O1` [Compound 4173, 4′-[5-(S)-(Acetylamino-methyl)-2-oxo-oxazolidin-3-yl]-2′-fluoro-biphenyl-4-carboxylic acid [1-carbamoyl-2-(S)-(3H-imidazol-4-yl)-ethyl]-amide], the MIC turned out to be 32 µg/mL (≈ 62.9 µM).

As to `CC(=O)NC[C@H]1CN(c2ccc(-c3ccc(CN[C@@H](Cc4c[nH]c5ccccc45)C(N)=O)cc3)c(F)c2)C(=O)O1` [Compound 4175, 2-({4′-[5-(S)-(Acetylamino-methyl)-2-oxo-oxazolidin-3-yl]-2′-fluoro-biphenyl-4-ylmethyl}-amino)-3-(S)-(1H-indol-3-yl)-propionamide], the MIC amounted to 2 µg/mL (≈ 3.68 µM).

For `CC(=O)NC[C@H]1CN(c2ccc(-c3cc(C)c(CNCc4ccncc4)cc3C)c(F)c2)C(=O)O1` [Compound 4176, N-[3-(2-Fluoro-2′,5′-dimethyl-4′-{[(pyridin-4-ylmethyl)-amino]-methyl}-biphenyl-4-yl)-2-oxo-oxazolidin-5-(S)-ylmethyl]-acetamide], the MIC turned out to be 128 µg/mL (≈ 269 µM).

As for `CC(=O)NC[C@H]1CN(c2ccc(-c3ccc(CNCC(F)(F)c4ccccn4)cc3)c(F)c2)C(=O)O1` [Compound 4177, N-(3-{4′-[(2,2-Difluoro-2-pyridin-2-yl-ethylamino)-methyl]-2-fluoro-biphenyl-4-yl}-2-oxo-oxazolidin-5-(S)-ylmethyl)-acetamide], the MIC came to 4 µg/mL (≈ 8.02 µM).

Take `CC(=O)NC[C@H]1CN(c2ccc(-c3ccc(CNCc4n[nH]c(=O)[nH]4)cc3)c(F)c2)C(=O)O1` [Compound 4178, N-[3-(2-Fluoro-4′-{[(5-(S)-oxo-4,5-dihydro-1H-[1,2,4]triazol-3-ylmethyl)-amino]-methyl}-biphenyl-4-yl)-2-oxo-oxazolidin-5-(S)-ylmethyl]-acetamide]: the MIC was 8 µg/mL (≈ 17.6 µM).

`CC(=O)NC[C@H]1CN(c2ccc(-c3ccc(CNCc4ccncc4F)cc3)c(F)c2)C(=O)O1` [Compound 4179, N-[3-(2-Fluoro-4′-{[(3-fluoro-pyridin-4-ylmethyl)-amino]-methyl}-biphenyl-4-yl)-2-oxo-oxazolidin-5-(S)-ylmethyl]-acetamide]: the MIC is 2 µg/mL (≈ 4.29 µM).

In the case of `CNc1nc(CNCc2ccc(-c3ccc(N4C[C@H](CNC(C)=O)OC4=O)cc3F)cc2)ns1` [Compound 4180, N-[3-(2-Fluoro-4′-{[(5-methylamino-[1,2,4]thiadiazol-3-ylmethyl)-amino]-methyl}-biphenyl-4-yl)-2-oxo-oxazolidin-5-(S)-ylmethyl]-acetamide], the MIC was 1 µg/mL (≈ 2.06 µM).

`CC(=O)NC[C@H]1CN(c2ccc(-c3ccc(CNCc4ccc(Br)nc4)cc3)c(F)c2)C(=O)O1` [Compound 4181, N-[3-(4′-{[(6-Bromo-pyridin-3-ylmethyl)-amino]-methyl}-2-fluoro-biphenyl-4-yl)-2-oxo-oxazolidin-5-(S)-ylmethyl]-acetamide]: the MIC came to 1 µg/mL (≈ 1.9 µM).

For `CC(=O)NC[C@H]1CN(c2ccc(-c3ccc(CNCc4ccc(Br)cn4)cc3)c(F)c2)C(=O)O1` [Compound 4182, N-[3-(4′-{[(5-Bromo-pyridin-2-ylmethyl)-amino]-methyl}-2-fluoro-biphenyl-4-yl)-2-oxo-oxazolidin-5-(S)-ylmethyl]-acetamide], the MIC is 2 µg/mL (≈ 3.79 µM).

Consider `CC(=O)NC[C@H]1CN(c2ccc(-c3ccc(CNCc4ccon4)cc3)c(F)c2)C(=O)O1` [Compound 4183, N-[3-(2-Fluoro-4′-{[(isoxazol-3-ylmethyl)-amino]-methyl}-biphenyl-4-yl)-2-oxo-oxazolidin-5-(S)-ylmethyl]-acetamide], for which the MIC is 1 µg/mL (≈ 2.28 µM).

As to `CC(=O)NC[C@H]1CN(c2ccc(-c3ccc([C@@H](NCc4ccncc4)C(N)=O)cc3)c(F)c2)C(=O)O1` [Compound 4184, 2-{4′-[5-(S)-(Acetylamino-methyl)-2-oxo-oxazolidin-3-yl]-2′-fluoro-biphenyl-4-yl}-2-(R)-[(pyridin-4-ylmethyl)-amino]-acetamide], the MIC was 16 µg/mL (≈ 32.6 µM).

Consider `CC(=O)NC[C@H]1CN(c2ccc(-c3ccc([C@@H](NCc4ccccn4)C(N)=O)cc3)c(F)c2)C(=O)O1` [Compound 4185], for which the MIC came to 16 µg/mL (≈ 32.6 µM).

`CC(=O)NC[C@H]1CN(c2ccc(-c3ccc(CNCC4CCNCC4)cc3)c(F)c2)C(=O)O1` [Compound 4186, N-[3-(2-Fluoro-4′-{[(piperidin-4-ylmethyl)-amino]-methyl}-biphenyl-4-yl)-2-oxo-oxazolidin-5-(S)-ylmethyl]-acetamide]: the MIC came out at 64 µg/mL (≈ 141 µM).

Consider `CC(=O)NC[C@H]1CN(c2ccc(-c3ccc(C(=O)NCc4ccccn4)nc3)c(F)c2)C(=O)O1` [Compound 4187, 5-{4-[5-(S)-(Acetylamino-methyl)-2-oxo-oxazolidin-3-yl]-2-fluoro-phenyl}-pyridine-2-carboxylic acid (pyridin-2-ylmethyl)-amide], for which the MIC worked out at 1 µg/mL (≈ 2.16 µM).

On to `CC(=O)NC[C@H]1CN(c2ccc(-c3ccc(C(=O)NCc4ccncc4)nc3)c(F)c2)C(=O)O1` [Compound 4188, 5-{4-[5-(S)-(Acetylamino-methyl)-2-oxo-oxazolidin-3-yl]-2-fluoro-phenyl}-pyridine-2-carboxylic acid (pyridin-4-ylmethyl)-amide], for which the MIC stood at 1 µg/mL (≈ 2.16 µM).

Consider `CC(=O)NC[C@H]1CN(c2ccc(-c3ccc(C(=O)NCc4nccs4)nc3)c(F)c2)C(=O)O1` [Compound 4189, 5-{4-[5-(S)-(Acetylamino-methyl)-2-oxo-oxazolidin-3-yl]-2-fluoro-phenyl}-pyridine-2-carboxylic acid (thiazol-2-ylmethyl)-amide], for which the MIC was 1 µg/mL (≈ 2.13 µM).
